According to patent US6723747B2, “Substituted 6H-DiBenzo[c,h]chromenes as estrogenic agents” (Wyeth, priority 2001, dated 2004):

Legend:
[1] = molecular target: T1, human ERα (Homo sapiens, UniProt P03372); assay: Radioligand binding competition with [3H]-17β-estradiol, ERα; conditions: human ERα ligand binding domain, read-out: ER-α IC50
T1 construct: amino acids M250-V595 of human ERα; His (N); made in house; host or cells: E. coli BL21(DE3), clarified lysate
T1 sequence (P03372 250-595): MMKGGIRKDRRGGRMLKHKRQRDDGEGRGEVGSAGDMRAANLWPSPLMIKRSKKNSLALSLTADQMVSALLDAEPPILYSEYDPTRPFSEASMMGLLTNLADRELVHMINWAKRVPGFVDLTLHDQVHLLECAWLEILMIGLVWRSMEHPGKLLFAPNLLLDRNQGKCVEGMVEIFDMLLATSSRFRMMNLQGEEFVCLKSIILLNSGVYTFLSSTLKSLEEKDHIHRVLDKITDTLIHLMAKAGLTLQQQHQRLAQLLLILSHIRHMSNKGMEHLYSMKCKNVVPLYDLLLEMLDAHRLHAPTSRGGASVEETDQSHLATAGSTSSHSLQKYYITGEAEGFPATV

[2] = tested on: Lewis rats; assay: Lewis rat adjuvant-induced arthritis, inhibition test procedure; assay type: in vivo; conditions: 10 mg/kg sc daily from Day 1
[3] = tested on: casein kinase II mRNA; assay: Mammary end bud test procedure (rat mammotrophic assay); assay type: in vivo; conditions: 20 mg/kg sc + progesterone 30 mg/kg; ovariectomized rats; vehicle 1.61 ± 0.36
Description: Estrogens are required for full ductal elongation and branching of the mammary ducts, and the subsequent development of lobulo-alveolar end buds under the influence of progesterone. In this test procedure, the mammotrophic activity of selected compounds of the invention was evaluated according to the following standard pharmacological test procedure. Twenty-eight day old Sprague-Dawley rats (Taconic Farms, Germantown, N.Y.) were ovariectomized and rested for nine days. […] For the final three days, rats were also dosed subcutaneously with progesterone (30 mg/kg). On the seventh day, rats were euthanised and a mammary fat pad excised. This fat pad was analyzed for casein kinase II mRNA as a marker of end bud proliferation. Casein kinase II mRNA was anlayzed by real-time RT-PCR. Briefly, RNA was isolated following Trizol (GibcoBRL, Grand Island, N.Y.) according to the manufacture's directions, Samples were treated with DNAse I using DNA-free kit (Ambion), and casein kinase II mRNA levels were measured by real-time RT-PCR using the Taqman Gold procedure (PE Applied Biosystems). […] Casein kinase II mRNA levels were normalized to 18s ribosomal RNA contained within each sample reaction using primers and probe supplied by PE Applied Biosystems. The following results were obtained for an example of the invention (Table (4)).

[4] = tested on: HLA-B27 rats; assay: HLA rat test procedure for inflammatory bowel disease; assay type: in vivo; conditions: for stool character, group's average score: 10 mg/kg oral daily, 3=diarrhea, 2=soft, 1=normal stool
Description: Representative compounds of the invention were evaluated in the HLA rat standard pharmacological test procedure which emulates inflammatory bowel disease in humans. The following briefly describes the procedure used and results obtained. Male HLA-B27 rats were obtained from Taconic and provided unrestricted access to food (PMI Lab diet 5001) and water. Rats were dosed once daily (orally) with either vehicle (2% tween-80/0.5% methylcellulose) or Example 1d (10 mg/kg) for 26 days. Stool quality was observed daily and graded according to the following scale: Diarrhea=3; soft stool=2; normal stool=1. […] At the end of the study, serum was collected and stored at −70° C. A section of colon was prepared for histological analysis and an additional segment was analyzed for myeloperoxidase activity.
Histological analysis. Colonic tissue was immersed in 10% neutral buffered formalin. Each specimen of colon was separated into four samples for evaluation. The formalin-fixed tissues were processed in a Tissue Tek vacuum infiltration processor (Miles, Inc; West Haven, Conn.) for paraffin embedding. The samples were sectioned at 5 μm and then stained with hematoxylin and eosin (H&E) for blinded histologic evaluations using a scale modified after Boughton-Smith. After the scores were completed the samples were unblinded, and data were tabulated and analyzed by ANOVA linear modeling with multiple mean comparisons. Sections of colonic tissue were evaluated for several disease indicators and given relative scores.

`N#Cc1cc2c(c3ccc(O)cc13)OCc1cc(O)ccc1-2` [Example 1d, 2,8-Dihydroxy-6H-dibenzo[c,h]chromene-12-carbonitrile] was tested, and the IC50 [1] was 107 nM, the “joint inflammation score (maximal score per day 12)” value ([2]; day 1, vehicle 0.00) was 0.00 and the “joint inflammation score (maximal score per day 12)” value ([2]; day 2, vehicle 0.00) was 0.00. The “joint inflammation score (maximal score per day 12)” value ([2]; day 3, vehicle 4.50) was 2.66, the “joint inflammation score (maximal score per day 12)” value ([2]; day 4, vehicle 5.50) was 1.83 and the “joint inflammation score (maximal score per day 12)” value ([2]; day 5, vehicle 9.33) was 2.66. The “joint inflammation score (maximal score per day 12)” value ([2]; day 6, vehicle 10.50) was 2.16, the “joint inflammation score (maximal score per day 12)” value ([2]; day 7, vehicle 10.60) was 2.00 and the “joint inflammation score (maximal score per day 12)” value ([2]; day 8, vehicle 11.00) was 1.66. The “joint inflammation score (maximal score per day 12)” value ([2]; day 9, vehicle 11.50) was 2.00, the “joint inflammation score (maximal score per day 12)” value ([2]; day 10, vehicle 11.33) was 2.00 and the “joint inflammation score (maximal score per day 12)” value ([2]; day 11, vehicle 10.83) was 1.66. The “joint inflammation score (maximal score per day 12)” value ([2]; day 12, vehicle 10.83) was 1.66, the “joint inflammation score (maximal score per day 12)” value ([2]; day 13, vehicle 11.00) was 2.16 and the “joint inflammation score (maximal score per day 12)” value ([2]; day 14, vehicle 11.00) was 2.00. The “joint inflammation score (maximal score per day 12)” value ([2]; day 15, vehicle 11.00) was 2.00, the “joint inflammation score (maximal score per day 12)” value ([2]; day 16, vehicle 11.00) was 1.00 and the “joint inflammation score (maximal score per day 12)” value ([2]; day 17, vehicle 10.50) was 1.33. The “Casein kinase II mRNA/18S rRNA (mean ± SEM)” value [3] was 1.4 ± 0.7, the stool quality ([4]; 10 mg/kg orally once daily for 26 days) was “stool quality improved” and the “stool character, group's average score” value ([4]; day 1, vehicle 1) was 1. The “stool character, group's average score” value ([4]; day 2, vehicle 1) was 1, the “stool character, group's average score” value ([4]; day 3, vehicle 1) was 1 and the “stool character, group's average score” value ([4]; day 4, vehicle 1.25) was 1. For the same molecule, the “stool character, group's average score” value ([4]; day 5, vehicle 2.5) was 1.5, the “stool character, group's average score” value ([4]; day 6, vehicle 2.75) was 1.25 and the “stool character, group's average score” value ([4]; day 7, vehicle 2.75) was 1.25. The “stool character, group's average score” value ([4]; day 8, vehicle 2.75) was 1, the “stool character, group's average score” value ([4]; day 9, vehicle 3) was 1.25 and the “stool character, group's average score” value ([4]; day 10, vehicle 3) was 1. For the same molecule, the “stool character, group's average score” value ([4]; day 11, vehicle 2.75) was 1.25, the “stool character, group's average score” value ([4]; day 12, vehicle 2.75) was 1.25 and the “stool character, group's average score” value ([4]; day 13, vehicle 2.75) was 1.25. The “stool character, group's average score” value ([4]; day 14, vehicle 2.75) was 1.25, the “stool character, group's average score” value ([4]; day 15, vehicle 2.75) was 1 and the “stool character, group's average score” value ([4]; day 16, vehicle 3) was 1. The “stool character, group's average score” value ([4]; day 17, vehicle 2.75) was 1, the “stool character, group's average score” value ([4]; day 18, vehicle 2.75) was 1 and the “stool character, group's average score” value ([4]; day 19, vehicle 2.75) was 1. The “stool character, group's average score” value ([4]; day 22, vehicle 3) was 1, the “stool character, group's average score” value ([4]; day 23, vehicle 3) was 1 and the “stool character, group's average score” value ([4]; day 24, vehicle 3) was 1. For the same molecule, the “stool character, group's average score” value ([4]; day 25, vehicle 3) was 1, the “stool character, group's average score” value ([4]; day 26, vehicle 3) was 1 and the “measurements of tissue injury in colon” value ([4]; histological analysis, 10 mg/kg orally) was “effective in reducing several measurements of tissue injury”. The “Fibrosis (0-2), colon histological score, mean ± SD” value ([4]; treated orally for 4 weeks, 10 mg/kg, vehicle 1.06 ± 0.32) was 0.13 ± 0.14, the “Ulceration (0-2), colon histological score, mean ± SD” value ([4]; treated orally for 4 weeks, 10 mg/kg, vehicle 1.44 ± 0.66) was 0.19 ± 0.13 and the “Lesion depth (0-2), colon histological score, mean ± SD” value ([4]; treated orally for 4 weeks, 10 mg/kg, vehicle 1.56 ± 0.63) was 0.19 ± 0.13. The “Inflammation (0-3), colon histological score, mean ± SD” value ([4]; treated orally for 4 weeks, 10 mg/kg, vehicle 2.88 ± 0.14) was 1.38 ± 0.43 and the “Total score, colon histological score, mean ± SD” value ([4]; treated orally for 4 weeks, 10 mg/kg, vehicle 6.94 ± 1.51) was 1.88 ± 0.14.
